The values below come from US20120190669A1, “OXINDOLE COMPOUNDS” (CYLENE PHARMACEUTICALS, INC., priority 2008, published 2012).

Sequence of recombinant PIM-1 (P11309 whole entry): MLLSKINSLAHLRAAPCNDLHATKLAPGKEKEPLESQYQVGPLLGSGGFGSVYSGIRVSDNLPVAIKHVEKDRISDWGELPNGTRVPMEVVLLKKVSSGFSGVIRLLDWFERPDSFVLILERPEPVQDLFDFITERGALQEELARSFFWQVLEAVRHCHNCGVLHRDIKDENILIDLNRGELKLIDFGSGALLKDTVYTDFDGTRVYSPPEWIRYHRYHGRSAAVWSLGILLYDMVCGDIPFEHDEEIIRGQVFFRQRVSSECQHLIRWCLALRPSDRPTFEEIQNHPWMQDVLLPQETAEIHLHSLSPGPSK

The first assay has as its target recombinant PIM-1 (Homo sapiens, UniProt P11309). As to the kind of experiment: PIM-1 kinase assay (radiometric, 15 uM ATP, DMSO 4%). Type of assay: biochemical. The settings on record: Table 1; % inhibition at the high dose (2 micromolar) in a single screening assay; 15 μM ATP. Here is the method: The following procedure was used to assay the PIM-1 kinase activity of compounds of the invention. Other methods for assaying PIM-1 and other PIM kinases, as well as methods to assay for activity against the various kinases in FIG. 1, are known in the art.
(specific activity approx. 500 cpm/pmol), DMSO 4% and test inhibitor compound at the required concentration. The reaction was initiated by the addition of the Magnesium ATP mixture. After 40 min incubation at 23° C., the reactions were quenched by the addition of 100 ul 0.75% Phosphoric acid, and the labeled peptide collected by filtration through a phosphocellulose filter plate. The plate was washed 4 times with 0.075% phosphoric acid (100 ul per well) and then, after the addition of scintillation fluid (20 ul per well), the counts were measured by a scintillation counter.
The term inhibition denotes the drop in the measured response relative to a control, in per cent. As for `O=C1Nc2ccccc2/C1=C\c1ccc(-c2cc(C(=O)NCCN3CCCC3)ccc2F)o1` [Compound 78], the inhibition at 2 µM is 88.3%. As to `CN1CCC(N(C)C(=O)c2ccc(-c3ccc(/C=C4/C(=O)Nc5ccccc54)o3)cn2)C1` (stereo not drawn) [Compound 131], the inhibition at 2 µM is 5.08%. For `CC1CCN(CCCNC(=O)c2cccc(-c3ccc(/C=C4/C(=O)Nc5ccc(Cl)cc54)o3)c2)CC1` [Compound 121], the inhibition at 2 µM is 25.2%. Regarding `O=C1Nc2ccccc2/C1=C\c1ccc(-c2cccc(C(=O)Nc3nccs3)c2)o1` [Compound 167], the inhibition at 2 µM is -3.02%.

With `CN(C)C1CCN(C(=O)c2ccc(-c3ccc(/C=C4/C(=O)Nc5ccc(F)cc54)o3)cc2)CC1` [Compound 87], the inhibition at 2 µM worked out at 51.9%. For `CN(C)C1CCN(C(=O)c2cccc(-c3ccc(/C=C4/C(=O)Nc5ccc(Cl)cc54)o3)c2)CC1` [Compound 113], the inhibition at 2 µM came to 38.1%. Still for that read-out and setting: the same measure for `CN1CCCC(NC(=O)c2cc(-c3ccc(/C=C4/C(=O)Nc5ccc(F)cc54)o3)ccc2Cl)C1` (stereo not drawn) [Compound 70]: 27.6%; for `CN(CCc1ccccn1)C(=O)c1cccc(-c2ccc(/C=C3/C(=O)Nc4ccc(Cl)cc43)o2)c1` [Compound 171]: -0.11%. On to `O=C1Nc2c(cccc2C(F)(F)F)/C1=C\c1ccc(-c2cccc(C(=O)NCCN3CCCC3)c2)o1` [Compound 50], for which the inhibition at 2 µM was determined as 8.16%. In the case of `O=C1Nc2ccc(C(=O)NCc3ccccc3)cc2/C1=C\c1ccc(-c2cccc(C(=O)NCCN3CCCC3)c2)o1` [Compound 8], the inhibition at 2 µM is 11.5%. On to `O=C1Nc2ccc(Cl)cc2/C1=C\c1ccc(-c2cccc(C(=O)NCc3ccccn3)c2)o1` [Compound 117], for which the inhibition at 2 µM was found to be 19.2%.

For `O=C1Nc2ccccc2/C1=C\c1ccc(-c2cc(F)cc(C(=O)NCCN3CCCC3)c2)o1` [Compound 79], the inhibition at 2 µM came to 43.3%. On to `CCN(CC)CCNC(=O)c1ccc(-c2ccc(/C=C3/C(=O)Nc4ccc(F)cc43)o2)cc1` [Compound 80], for which the inhibition at 2 µM is 94.2%. With `O=C1Nc2ccc(Cl)cc2/C1=C\c1ccc(-c2cccc(C(=O)NCc3ccnc(N4CCCC4)c3)c2)o1` [Compound 141], the inhibition at 2 µM was determined as 26.3%.

As for `O=C1Nc2c(F)cccc2/C1=C\c1ccc(-c2ccc(Cl)c(C(=O)NCCN3CCCC3)c2)o1` [Compound 104], the inhibition at 2 µM is -5.3%. Same read-out and setting: the same measure for `CN(C)C1CCN(C(=O)c2ccc(-c3ccc(/C=C4/C(=O)Nc5ccccc54)o3)cn2)CC1` [Compound 138]: 30.5%; for `CN1CCC(NC(=O)c2cc(-c3ccc(/C=C4/C(=O)Nc5ccccc54)o3)ccc2Cl)CC1` [Compound 27]: -16.9%; for `COC(=O)c1ccc(-c2ccc(/C=C3/C(=O)Nc4ccccc43)o2)c(N)c1` [Compound 143]: 30.6%. For the compound `COC(=O)c1ccccc1-c1ccc(/C=C2/C(=O)Nc3ccc(F)cc32)o1` [Compound 30], the inhibition at 2 µM is -6.8%.

Consider `O=C1Nc2c(Cl)cccc2/C1=C\c1ccc(-c2cccc(C(=O)NCCN3CCCC3)c2)o1` [Compound 41], for which the inhibition at 2 µM stood at 19%. Take `CCN1CCCC1CNC(=O)c1ccc(-c2ccc(/C=C3/C(=O)Nc4ccccc43)o2)cn1` (stereo not drawn) [Compound 130]: the inhibition at 2 µM turned out to be 24.3%. As to `CN1CCCN(C(=O)c2ccc(-c3ccc(/C=C4/C(=O)Nc5ccccc54)o3)cn2)CC1` [Compound 137], the inhibition at 2 µM came out at 20.6%.

Consider `Cn1cncc1CNC(=O)c1ccccc1-c1ccc(/C=C2/C(=O)Nc3ccc(F)cc32)o1` [Compound 65], for which the inhibition at 2 µM is -2.39%. For `O=C1Nc2ccc(F)cc2/C1=C\c1ccc(-c2ccc(Cl)c(C(=O)N3CCCCC3)c2)o1` [Compound 77], the inhibition at 2 µM was -17%. Still for that read-out and setting: the same measure for `CN1CCCCC1CNC(=O)c1cccc(-c2ccc(/C=C3/C(=O)Nc4cccc(Br)c43)o2)c1` (stereo not drawn) [Compound 45]: -21.9%; for `CON(C)C(=O)c1cccc(-c2ccc(/C=C3/C(=O)Nc4ccc(Cl)cc43)o2)c1` [Compound 176]: -59.6%. On the same count and under the same terms, the value for `CN1CCCCC1CNC(=O)c1ccccc1-c1ccc(/C=C2/C(=O)Nc3ccc(F)cc32)o1` (stereo not drawn) [Compound 66] was 4.53%; that for `CN(C)C1CCN(C(=O)c2cccc(-c3coc(/C=C4/C(=O)Nc5ccc(F)cc54)c3)c2)CC1` [Compound 96] was 10.8%. As to `CCN(CC)CCNC(=O)c1cccc(-c2coc(/C=C3/C(=O)Nc4ccc(F)cc43)c2)c1` [Compound 94], the inhibition at 2 µM was 11.5%. Same read-out and setting: the value for `CN1CC(NC(=O)c2cc(-c3ccc(/C=C4/C(=O)Nc5ccccc54)o3)ccc2Cl)C1` [Compound 25] was -15.8%; that for `CN(C)C1CCN(C(=O)c2ccccc2-c2ccc(/C=C3/C(=O)Nc4ccccc43)o2)CC1` [Compound 61] was -2.65%.

As for `CN(C)CCNC(=O)c1cc(-c2ccc(/C=C3/C(=O)Nc4ccccc43)o2)ccc1Cl` [Compound 24], the inhibition at 2 µM turned out to be 36.7%.

Turning to `CN1CCC(N(C)C(=O)c2cccc(-c3coc(/C=C4/C(=O)Nc5ccc(F)cc54)c3)c2)C1` (stereo not drawn) [Compound 91], the inhibition at 2 µM was 2.87%. On the same count and under the same terms, the same measure for `NCc1cccc(-c2ccc(/C=C3/C(=O)Nc4ccccc43)o2)c1` [Compound 165]: 19.4%. The same measure, in the same setting: the same measure for `COCCNC(=O)c1cccc(-c2ccc(/C=C3/C(=O)Nc4ccc(F)cc43)o2)c1` [Compound 17]: 49.6%.

As for `O=C1Nc2ccc(F)cc2/C1=C\c1ccc(-c2ccc(Cl)c(C(=O)NCCN3CCCC3)c2)o1` [Compound 73], the inhibition at 2 µM worked out at 20.9%. On the same count and under the same terms, the same measure for `O=C1Nc2ccc(F)cc2/C1=C\c1cc(-c2cccc(C(=O)NCCN3CCCC3)c2)co1` [Compound 88]: 9%.

The same assay, now with this note: Table 1; given for compounds with IC50 at or below 2 micromolar; 15 uM ATP; read-out: PIM-1 IC50.
The IC50 is the concentration needed to halve the response being measured. In the case of `O=C1Nc2ccccc2/C1=C\c1ccc(-c2cc(C(=O)NCCN3CCCC3)ccc2F)o1` [Compound 78], the IC50 is less than 1 µM. On the same count and under the same terms, the value for `O=C1Nc2ccc(Cl)cc2/C1=C\c1ccc(-c2cccc(C(=O)NCCN(CCO)CCO)c2)o1` [Compound 193] was less than 1 µM. Still for that read-out and setting: the value for `CN(C)C1CCN(C(=O)c2ccc(-c3ccc(/C=C4/C(=O)Nc5ccc(F)cc54)o3)cc2)CC1` [Compound 87] was less than 2 µM; that for `Cn1cncc1CNC(=O)c1cccc(-c2ccc(/C=C3/C(=O)Nc4ccc(Cl)cc43)o2)c1` [Compound 110] was less than 1 µM; that for `CN(CCN1CCCC1)C(=O)c1ccc(-c2ccc(/C=C3/C(=O)Nc4ccccc43)o2)cc1` [Compound 34] was less than 1 µM. The same measure, in the same setting: the same measure for `O=C1Nc2ccc(Cl)cc2/C1=C\c1ccc(-c2cccc(C(=O)NCCCn3ccnc3)c2)o1` [Compound 123]: less than 1 µM. In the case of `O=C1Nc2ccccc2/C1=C\c1ccc(-c2cc(F)cc(C(=O)NCCN3CCCC3)c2)o1` [Compound 79], the IC50 is less than 2 µM. Same read-out and setting: the value for `CCN(CC)CCNC(=O)c1ccc(-c2ccc(/C=C3/C(=O)Nc4ccc(F)cc43)o2)cc1` [Compound 80] was less than 1 µM. For `CCN(CC)CCNC(=O)c1cccc(-c2ccc(/C=C3/C(=O)Nc4ccc(Cl)cc43)o2)c1` [Compound 120], the IC50 was less than 2 µM. `O=C1Nc2ccc(Cl)cc2/C1=C\c1ccc(-c2cccc(C(=O)NCC(O)c3ccncc3)c2)o1` (stereo not drawn) [Compound 190]: the IC50 was less than 1 µM. Turning to `O=C1Nc2ccc(F)cc2/C1=C\c1ccc(-c2cccc(C(=O)NCc3ccncc3)c2)o1` [Compound 21], the IC50 was less than 2 µM. For the compound `CN1CCCN(C(=O)c2cccc(-c3ccc(CC4C(=O)Nc5ccc(Cl)cc54)o3)c2)CC1` (stereo not drawn) [Compound 197], the IC50 was less than 1 µM.

With `O=C1Nc2ccccc2/C1=C\c1ccc(-c2ccc(CO)cc2)o1` [Compound 164], the IC50 is less than 2 µM. As for `O=C1Nc2ccc(F)cc2/C1=C\c1ccc(-c2cccc(C(=O)O)c2)o1` [Compound 10], the IC50 is less than 2 µM.

Regarding `CCN(CC)CCNC(=O)c1cccc(-c2ccc(/C=C3/C(=O)Nc4ccccc43)o2)c1` [Compound 4], the IC50 was less than 1 µM. In the case of `CCN(CC)CC(=O)Nc1cccc(-c2ccc(/C=C3/C(=O)Nc4ccccc43)o2)c1` [Compound 187], the IC50 is less than 1 µM.

On to `O=C1Nc2ccc(Cl)cc2/C1=C\c1ccc(-c2cccc(C(=O)NCc3cccnc3)c2)o1` [Compound 116], for which the IC50 was less than 1 µM. For the compound `Cc1cnc(CNC(=O)c2ccc(-c3ccc(/C=C4/C(=O)Nc5ccc(Cl)cc54)o3)cc2)cn1` [Compound 140], the IC50 is less than 1 µM.

Consider `O=C1Nc2ccc(Cl)cc2/C1=C\c1ccc(-c2cccc(C(=O)NCCCN3CCOCC3)c2)o1` [Compound 124], for which the IC50 was less than 1 µM. As to `O=C1Nc2ccc(Cl)cc2/C1=C\c1ccc(-c2cncc(C(=O)O)c2)o1` [Compound 146], the IC50 is less than 2 µM.

For `O=C1Nc2ccccc2/C1=C\c1ccc(-c2ccccc2O)o1` [Compound 162], the IC50 is less than 2 µM. Take `CN(C)C1CCN(C(=O)c2ccc(Cl)c(-c3ccc(/C=C4/C(=O)Nc5ccc(F)cc54)o3)c2)CC1` [Compound 103]: the IC50 was less than 2 µM. The same measure, in the same setting: the value for `O=C1Nc2ccc(Cl)cc2/C1=C\c1ccc(-c2cccc(C(=O)NC3=NCCS3)c2)o1` [Compound 174] was less than 1 µM.

With `O=C1Nc2ccccc2/C1=C\c1ccc(-c2cccc(CO)c2)o1` [Compound 163], the IC50 was less than 2 µM.

In the case of `C/C(=C1\C(=O)Nc2ccc(Cl)cc21)c1ccc(-c2ccc(C(=O)N3CCCN(C)CC3)cc2)o1` [Compound 195], the IC50 was less than 1 µM. On the same count and under the same terms, the same measure for `O=C1Nc2ccc(Cl)cc2/C1=C\c1ccc(-c2cncc(C(=O)NCCN3CCCC3)c2)o1` [Compound 147]: less than 1 µM; for `CCN1CCCC1CNC(=O)c1ccc(-c2ccc(/C=C3/C(=O)Nc4ccccc43)o2)cc1` (stereo not drawn) [Compound 32]: less than 1 µM; for `CN1CCCCC1CNC(=O)c1ccc(Cl)c(-c2ccc(/C=C3/C(=O)Nc4ccc(F)cc43)o2)c1` (stereo not drawn) [Compound 102]: less than 2 µM.

Staying with this assay, now noted: Table 3; DMSO 4%; read-out: PIM1: IC50 (DMSO 4%).
Regarding `CN1CCCN(C(=O)c2ccc(Cl)c(-c3ccc(/C=C4/C(=O)Nc5ccc(F)cc54)o3)c2)CC1`, the IC50 was less than 1 µM.
